# Test results taken from patent publication US20190322676A1, “CERAMIDE GALACTOSYLTRANSFERASE INHIBITORS FOR THE TREATMENT OF DISEASE” (BioMarin Pharmaceutical Inc., priority 2016, published 2019).
# Structures can show the parent of a compound that is named as a salt.
# Target: T1, human CGT (ceramide galactosyltransferase), CHO/CGT lysate (Homo sapiens, UniProt Q16880)
# T1 construct: Full-length human CGT cDNA was cloned into the BamH1/Xho1 site of pcDNA3.1 (+); expressed in transfected cells; host or cells: Chinese hamster ovary (CHO) cells; lysate prepared with M-PER
# T1 sequence (Q16880 21-541): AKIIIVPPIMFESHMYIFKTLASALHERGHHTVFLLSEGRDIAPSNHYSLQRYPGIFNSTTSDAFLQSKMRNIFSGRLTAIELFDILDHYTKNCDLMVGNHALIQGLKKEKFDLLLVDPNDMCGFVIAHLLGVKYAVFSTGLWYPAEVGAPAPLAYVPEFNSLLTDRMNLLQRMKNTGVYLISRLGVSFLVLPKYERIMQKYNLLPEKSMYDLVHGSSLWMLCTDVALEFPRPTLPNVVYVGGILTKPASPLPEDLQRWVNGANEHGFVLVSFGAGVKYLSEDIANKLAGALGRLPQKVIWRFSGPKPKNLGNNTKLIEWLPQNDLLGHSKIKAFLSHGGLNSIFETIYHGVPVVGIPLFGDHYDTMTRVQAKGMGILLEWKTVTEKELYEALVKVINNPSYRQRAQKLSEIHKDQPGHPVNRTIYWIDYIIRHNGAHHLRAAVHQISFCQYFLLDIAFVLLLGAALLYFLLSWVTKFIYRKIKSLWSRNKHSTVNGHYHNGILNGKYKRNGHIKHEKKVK
# Test: CGT enzyme assay, RapidFire/MS/MS readout (Table 1 ranges with one asterisk *)
# Type: biochemical
# Settings: RapidFire method (range with one asterisk *)
# Summary of the method: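 Lysate (4 μg) of CHO cells transfected with full-length human CGT incubated 1 h at 37 °C with compound (0.001–50 μM) in pH 7.2 HEPES buffer with 10 μM C6-NBD-dihydro-ceramide, 17.5 μM UDP-galactose, Mg2+/Mn2+, CHAPS, BSA, 0.5% DMSO; ** set also contained 0.01% Tween 80. Product quantified by RapidFire/MS/MS, normalized to internal standard; IC50 from sigmoidal variable-slope fits.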
row,SMILES,IC50 [µM]
1,"NC1CCN(C(=O)[C@H](NS(=O)(=O)c2ccc3cc(OC4CCCC4)ccc3c2)C(F)(F)c2cccc(-c3ccccc3)c2)CC1 [Compound 69-2, (S)—N-(1-([1,1′-biphenyl]-3-yl)-3-(4-aminopiperidin-1-yl)-1,1-difluoro-3-oxopropan-2-yl)-6-(cyclopentyloxy)naphthalene-2-sulfonamide trifluoroacetate]",30 to 100
2,"NC1CC2CCC(C1)N2C(=O)[C@@H](NS(=O)(=O)c1ccc(OCC2CCCCC2)cc1)C(F)(F)c1cccc(-c2ccccc2)c1 (stereo partly drawn) [Compound 70-1, N-((2R)-1-([1,1′-biphenyl]-3-yl)-3-(3-amino-8-azabicyclo[3.2.1]octan-8-yl)-1,1-difluoro-3-oxopropan-2-yl)-4-(cyclohexylmethoxy)benzenesulfonamide trifluoroacetate]",1 to 10
3,"NC1CC2CCC(C1)N2C(=O)[C@H](NS(=O)(=O)c1ccc(OCC2CCCCC2)cc1)C(F)(F)c1cccc(-c2ccccc2)c1 (stereo partly drawn) [Compound 70-2, N-((2S)-1-([1,1′-biphenyl]-3-yl)-3-(3-amino-8-azabicyclo[3.2.1]octan-8-yl)-1,1-difluoro-3-oxopropan-2-yl)-4-(cyclohexylmethoxy) benzenesulfonamide trifluoroacetate]",1 to 10
4,"NC1CCN(C(=O)[C@@H](NS(=O)(=O)c2ccc3cc(OC4CCCC4)ccc3c2)C(F)(F)c2ccc(C(F)(F)F)cc2)CC1 [Compound 71-1, (R)—N-(3-(4-aminopiperidin-1-yl)-1,1-difluoro-3-oxo-1-(4-(trifluoromethyl)phenyl)propan-2-yl)-6-(cyclopentyloxy)naphthalene-2-sulfonamide]",< 1
5,"NC1CCN(C(=O)[C@H](NS(=O)(=O)c2ccc3cc(OC4CCCC4)ccc3c2)C(F)(F)c2ccc(C(F)(F)F)cc2)CC1 [Compound 71-2, (S)—N-(3-(4-aminopiperidin-1-yl)-1,1-difluoro-3-oxo-1-(4-(trifluoromethyl)phenyl)propan-2-yl)-6-(cyclopentyloxy)naphthalene-2-sulfonamide]",1 to 10
6,"NC1CCN(C(=O)[C@@H](NS(=O)(=O)c2ccc(OCC3CCCCC3)cc2)C(F)(F)c2ccc(C(F)(F)F)cc2)CC1 [Compound 72-1, (R)—N-(3-(4-aminopiperidin-1-yl)-1,1-difluoro-3-oxo-1-(4-(trifluoromethyl)phenyl)propan-2-yl)-4-(cyclohexylmethoxy)benzenesulfonamide]",1 to 10
7,"NC1CCN(C(=O)[C@H](NS(=O)(=O)c2ccc(OCC3CCCCC3)cc2)C(F)(F)c2ccc(C(F)(F)F)cc2)CC1 [Compound 72-2, (S)—N-(3-(4-aminopiperidin-1-yl)-1,1-difluoro-3-oxo-1-(4-(trifluoromethyl)phenyl)propan-2-yl)-4-(cyclohexylmethoxy)benzenesulfonamide]",30 to 100
8,"CN([C@H](C(=O)N1C2CCC1CC(N)C2)C(F)(F)c1ccc(C(F)(F)F)cc1)S(=O)(=O)c1ccc2cc(OC3CCCC3)ccc2c1 (stereo partly drawn) [Compound 73-1, N-((2R)-3-(3-amino-8-azabicyclo[3.2.1]octan-8-yl)-1,1-difluoro-3-oxo-1-(4-(trifluoromethyl)phenyl)propan-2-yl)-6-(cycyclopentyloxy)-N-methylnaphthalene-2-sulfonamide]",< 1
9,"CN([C@@H](C(=O)N1C2CCC1CC(N)C2)C(F)(F)c1ccc(C(F)(F)F)cc1)S(=O)(=O)c1ccc2cc(OC3CCCC3)ccc2c1 (stereo partly drawn) [Compound 73-2, N-((2S)-3-(3-amino-8-azabicyclo[3.2.1]octan-8-yl)-1,1-difluoro-3-oxo-1-(4-(trifluoromethyl)phenyl)propan-2-yl)-6-(cyclopentyloxy)-N-methylnaphthalene-2-sulfonamide]",1 to 10
10,"NC1CC2CCC(C1)N2C(=O)[C@@H](NS(=O)(=O)c1ccc2c(cnn2CC2CCCC2)c1)C(F)(F)c1ccc(Br)cc1 (stereo partly drawn) [Compound 74-1, N-((2R)-3-(3-amino-8-azabicyclo[3.2.1]octan-8-yl)-1-(4-bromophenyl)-1,1-difluoro-3-oxopropan-2-yl)-1-(cyclopentylmethyl)-1H-indazole-5-sulfonamide]",1 to 10
11,"NC1CC2CCC(C1)N2C(=O)[C@H](NS(=O)(=O)c1ccc2c(cnn2CC2CCCC2)c1)C(F)(F)c1ccc(Br)cc1 (stereo partly drawn) [Compound 74-2, N-((2S)-3-(3-amino-8-azabicyclo[3.2.1]octan-8-yl)-1-(4-bromophenyl)-1,1-difluoro-3-oxopropan-2-yl)-1-(cyclopentylmethyl)-1H-indazole-5-sulfonamide]",30 to 100
12,"CN([C@H](C(=O)N1C2CCC1CC(N)C2)C(F)(F)c1ccc(Br)cc1)S(=O)(=O)c1ccc2c(cnn2CC2CCCC2)c1 (stereo partly drawn) [Compound 75-1, N-((2R)-3-(3-amino-8-azabicyclo[3.2.1]octan-8-yl)-1-(4-bromophenyl)-1,1-difluoro-3-oxopropan-2-yl)-1-(cyclopentylmethyl)-N-methyl-1H-indazole-5-sulfonamide]",1 to 10
13,"CN([C@@H](C(=O)N1C2CCC1CC(N)C2)C(F)(F)c1ccc(Br)cc1)S(=O)(=O)c1ccc2c(cnn2CC2CCCC2)c1 (stereo partly drawn) [Compound 75-2, N-((2S)-3-(3-amino-8-azabicyclo[3.2.1]octan-8-yl)-1-(4-bromophenyl)-1,1-difluoro-3-oxopropan-2-yl)-1-(cyclopentylmethyl)-N-methyl-1H-indazole-5-sulfonamide]",30 to 100
14,"CC(C)N([C@H](C(=O)N1C2CCC1CC(N)C2)C(F)(F)c1ccc(Br)cc1)S(=O)(=O)c1ccc2cc(OC3CCCC3)ccc2c1 (stereo partly drawn) [Compound 76-1, N-((2R)-3-(3-amino-8-azabicyclo[3.2.1]octan-8-yl)-1-(4-bromophenyl)-1,1-difluoro-3-oxopropan-2-yl)-6-(cyclopentyloxy)-N-isopropylnaphthalene-2-sulfonamide]",10 to 30
15,"CC(C)N([C@@H](C(=O)N1C2CCC1CC(N)C2)C(F)(F)c1ccc(Br)cc1)S(=O)(=O)c1ccc2cc(OC3CCCC3)ccc2c1 (stereo partly drawn) [Compound 76-2, N-((2S)-3-(3-amino-8-azabicyclo[3.2.1]octan-8-yl)-1-(4-bromophenyl)-1,1-difluoro-3-oxopropan-2-yl)-6-(cyclopentyloxy)-N-isopropylnaphthalene-2-sulfonamide]",30 to 100
16,"NC1CC2CCC(C1)N2C(=O)[C@@H](NS(=O)(=O)c1ccc2nn(CC3CCCC3)cc2c1)C(F)(F)c1ccc(Br)cc1 (stereo partly drawn) [Compound 77-1, N-((2R)-3-(3-amino-8-azabicyclo[3.2.1]octan-8-yl)-1-(4-bromophenyl)-1,1-difluoro-3-oxopropan-2-yl)-2-(cyclopentylmethyl)-2H-indazole-5-sulfonamide]",1 to 10
17,"NC1CC2CCC(C1)N2C(=O)[C@H](NS(=O)(=O)c1ccc2nn(CC3CCCC3)cc2c1)C(F)(F)c1ccc(Br)cc1 (stereo partly drawn) [Compound 77-2, N-((2S)-3-(3-amino-8-azabicyclo[3.2.1]octan-8-yl)-1-(4-bromophenyl)-1,1-difluoro-3-oxopropan-2-yl)-2-(cyclopentylmethyl)-2H-indazole-5-sulfonamide]",30 to 100
18,"CN([C@H](C(=O)N1C2CCC1CC(N)C2)C(F)(F)c1ccc(Br)cc1)S(=O)(=O)c1ccc2nn(CC3CCCC3)cc2c1 (stereo partly drawn) [Compound 78-1, N-((2R)-3-(3-amino-8-azabicyclo[3.2.1]octan-8-yl)-1-(4-bromophenyl)-1,1-difluoro-3-oxopropan-2-yl)-2-(cyclopentylmethyl)-N-methyl-2H-indazole-5-sulfonamide]",1 to 10
19,"CN([C@@H](C(=O)N1C2CCC1CC(N)C2)C(F)(F)c1ccc(Br)cc1)S(=O)(=O)c1ccc2nn(CC3CCCC3)cc2c1 (stereo partly drawn) [Compound 78-2, N-((2S)-3-(3-amino-8-azabicyclo[3.2.1]octan-8-yl)-1-(4-bromophenyl)-1,1-difluoro-3-oxopropan-2-yl)-2-(cyclopentylmethyl)-N-methyl-2H-indazole-5-sulfonamide]",30 to 100
20,"CCCCOc1ccc(C(F)(F)[C@@H](C(=O)N2C3CCC2CC(N)C3)N(C)S(=O)(=O)c2ccc(OCC3CCCCC3)cc2)cc1 (stereo partly drawn) [Compound 79-1, N-((2R)-3-(3-amino-8-azabicyclo[3.2.1]octan-8-yl)-1-(4-butoxyphenyl)-1,1-difluoro-3-oxopropan-2-yl)-4-(cyclohexylmethoxy)-N-methylbenzenesulfonamide]",1 to 10
21,"CCCCOc1ccc(C(F)(F)[C@H](C(=O)N2C3CCC2CC(N)C3)N(C)S(=O)(=O)c2ccc(OCC3CCCCC3)cc2)cc1 (stereo partly drawn) [Compound 79-2, N-((2S)-3-(3-amino-8-azabicyclo[3.2.1]octan-8-yl)-1-(4-butoxyphenyl)-1,1-difluoro-3-oxopropan-2-yl)-4-(cyclohexylmethoxy)-N-methylbenzenesulfonamide]",1 to 10
22,"CCCCOc1ccc(C(F)(F)[C@H](NS(=O)(=O)c2ccc3cc(OC4CCCC4)ccc3c2)C(=O)N2CCC(N)CC2)cc1 [Compound 80-1, (R)—N-(3-(4-aminopiperidin-1-yl)-1-(4-butoxyphenyl)-1,1-difluoro-3-oxopropan-2-yl)-6-(cyclopentyloxy)naphthalene-2-sulfonamide]",< 1
